Assay results: patent US8378085B2, “Bacterial ATP synthase binding domain” (priority 2004, dated 2013)
Values after ≈ are worked out from the molar mass of the structure shown. Values joined by “and” are separate entries in the source; they are usually repeats but may differ in a detail not shown here. Equal values may be shown once. Read-outs that look alike come from different tables or passages of the source.

Key:
[1] = system: wild type M. tuberculosis; format: cell-based, Mycobacterium tuberculosis
M. avium complex [2] = conditions: statement in discussion; cited from earlier work
Haemophilus influenzae = format: cell-based; conditions: Gram negative Haemophilus influenzae
M. smegmatis = assay: MIC against M. smegmatis; format: cell-based, Mycobacterium smegmatis; conditions: Mycolicibacterium smegmatis, 7 strains, read-out: MIC Median values
Source text: Table. 1 The minimum inhibitory concentrations (MICs) of the lead DARQ compound (J), that inhibited 90% of the growth of different mycobacterial species. the number of strains tested were n=1, unless otherwise indicated.

Helicobacter pylori = format: cell-based; conditions: Gram negative Helicobacter pylori
[3] = system: M. smegmatis transformed with mutant atpE (D32V); format: cell-based; conditions: wild-type M. smegmatis transformed with plasmid containing mutant F0 fragment (D32V); MIC practically identical to resistant strain R09
[4] = system: M. tuberculosis in log-phase growth; format: cell-based, Mycobacterium tuberculosis
M. kansasii = assay: microbe, parasite or virus in culture; format: cell-based; conditions: Mycobacterium kansasii, read-out: MIC Median values
Nocardia = assay: microbe, parasite or virus in culture; format: cell-based
M. abscessus = assay: microbe, parasite or virus in culture; format: cell-based, Mycobacterium abscessus; conditions: Mycobacteroides abscessus, read-out: MIC Median values
[5] = system: MDR-TB strains and fully drug-susceptible strains; format: cell-based, Mycobacterium tuberculosis
Staphylococcus aureus = assay: microbe, parasite or virus in culture; format: cell-based; conditions: Staphylococcus aureus including methicillin-resistant strains
M. tuberculosis = assay: microbe, parasite or virus in culture; format: cell-based; conditions: Mycobacterium tuberculosis
M. bovis = assay: microbe, parasite or virus in culture; format: cell-based; conditions: Mycobacterium tuberculosis variant bovis, read-out: MIC Median values
M. marinum = assay: microbe, parasite or virus in culture; format: cell-based; conditions: Mycobacterium marinum, read-out: MIC Median values
Corynebacterium = assay: microbe, parasite or virus in culture; format: cell-based
M. avium complex [6] = assay: microbe, parasite or virus in culture; format: cell-based; conditions: Mycobacterium avium, 7 strains, read-out: MIC Median values
Enterococcus faecalis = format: cell-based; conditions: Gram positive Enterococcus faecalis
Escherichia coli = format: cell-based; conditions: Gram negative Escherichia coli
Streptococcus pneumoniae = format: cell-based; conditions: Gram positive Streptococcus pneumoniae
M. fortuitum = assay: microbe, parasite or virus in culture; format: cell-based, Mycobacterium fortuitum

## NNC(=O)c1ccncc1 [isoniazid]
[1]
  effect on ATP production (total cellular ATP): no effect
M. avium complex [2]
  activity against MAC: no activity

## COc1nc2ccc(Br)cc2cc1[C@@H](c1ccccc1)[C@@](O)(CCN(C)C)c1cccc2ccccc12 [J]
Haemophilus influenzae
  activity: not active
M. smegmatis
  MIC: 0.007 µg/mL (≈ 0.0126 µM)
Helicobacter pylori
  activity: not active
[3]
  susceptibility of transformed cells: resistant
[1]
  effect on ATP production (total cellular ATP): dose dependent decrease in ATP production
[4]
  reduction in bacterial counts: 10^3 log
M. kansasii
  MIC: 0.003 µg/mL (≈ 0.0054 µM)
Nocardia
  MIC: > 4 µg/mL
M. abscessus
  MIC: 0.25 µg/mL (≈ 0.45 µM)
[5]
  isolates of MDR-TB found susceptible: 43% and 57%
  strains with MIC below 0.010 μg/ml: only one of 10
  susceptibility of strains: all strains were susceptible
Staphylococcus aureus
  MIC: > 32 µg/mL
M. tuberculosis; H37RV, read-out: MIC Median values
  MIC: 0.03 µg/mL (≈ 0.054 µM)
M. tuberculosis; read-out: median MIC
  MIC: 0.06 µg/mL (≈ 0.108 µM)
M. bovis
  MIC: 0.003 µg/mL (≈ 0.0054 µM)
M. marinum
  MIC: 0.003 µg/mL (≈ 0.0054 µM)
Corynebacterium
  MIC: 4 µg/mL (≈ 7.2 µM)
M. avium complex [6]
  MIC: 0.01 µg/mL (≈ 0.018 µM)
Enterococcus faecalis
  activity: not active
Escherichia coli
  activity: not active
Streptococcus pneumoniae
  activity: not active
M. fortuitum; M. fortuitum resistant to fluoroquinolone, 2 strains
  MIC Median values: 0.010 µg/mL (≈ 0.018 µM)
M. fortuitum; Mycolicibacterium fortuitum, M. fortuitum, 3 strains, read-out: MIC Median values
  MIC: 0.01 µg/mL (≈ 0.018 µM)
